A word on the Ki: it is a measure of affinity in units of concentration, obtained from inhibition or displacement. Read a high Ki as lower affinity.

Each structure is given as a SMILES string.

For one experiment, the target named is T1, Muscarinic acetylcholine receptor M1 (Rattus norvegicus, UniProt P08482).
T1 sequence (P08482 whole entry): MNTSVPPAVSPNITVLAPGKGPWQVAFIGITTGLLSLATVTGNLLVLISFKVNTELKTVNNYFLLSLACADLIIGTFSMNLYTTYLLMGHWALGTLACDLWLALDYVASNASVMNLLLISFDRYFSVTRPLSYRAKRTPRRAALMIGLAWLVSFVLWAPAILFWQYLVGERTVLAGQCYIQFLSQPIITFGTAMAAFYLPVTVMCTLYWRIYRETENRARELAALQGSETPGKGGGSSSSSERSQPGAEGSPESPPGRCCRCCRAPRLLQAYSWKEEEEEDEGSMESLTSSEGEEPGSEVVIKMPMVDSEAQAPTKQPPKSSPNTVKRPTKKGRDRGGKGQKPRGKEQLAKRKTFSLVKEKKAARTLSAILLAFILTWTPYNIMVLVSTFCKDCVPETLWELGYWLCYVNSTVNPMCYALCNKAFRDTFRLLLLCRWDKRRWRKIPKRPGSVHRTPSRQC
The experiment is described as follows: Ability to displace [3H]- pirenzepine from M1 receptor in rat hippocampal membranes. In kind it is cell membranes, Hippocampus.
Turning to `CC(C)CC(=O)N/N=C1\CC2(CCN(C)CC2)OC1C` (centres undefined), the inhibitory constant (Ki) turned out to be 90 µM.

Molecule `CC1OC2(CCN(C)CC2)C/C1=N\NC(=O)Cc1ccc2ccccc2c1` (centres undefined) returned an inhibition constant (Ki) of 10 µM. This Ki is about 9-fold lower than that of the molecule before.

Consider `COC(=O)N/N=C1\CC2(CCN(C)CC2)OC1C` (centres undefined), for which the inhibition constant (Ki) was determined as 25 µM.

`CCCCC(=O)N/N=C1\CC2(CCN(C)CC2)OC1C` (centres undefined) yielded a Ki of 41 µM.

In turn, `CC(=O)N(C)/N=C1\CC2(CCN(C)CC2)OC1C` (centres undefined) returned a Ki of 60 µM. This Ki and that of the molecule before are within 1.5-fold of each other.

For `CCCCCCCCC(=O)N/N=C1\CC2(CCN(C)CC2)OC1C` (centres undefined), the affinity corresponds to a Ki of 9 µM.

`CC(=O)N/N=C1\CC2(CCN(C)CC2)OC1C` (centres undefined) returned a Ki of 100 µM.

`CC(=O)N/N=C1\CC2(CCNCC2)OC1C` (centres undefined): the Ki was 180 µM.

In turn, `CC1OC2(CCN(C)CC2)C/C1=N\NC(=O)CCCc1ccccc1` (centres undefined) gave an inhibition constant (Ki) of 34 µM.

The molecule `CC1OC2(CCN(C)CC2)C/C1=N\NC(=O)c1ccccc1` (centres undefined) registered a Ki of 78 µM.

As for `CCCCCCCC(=O)N/N=C1\CC2(CCN(C)CC2)OC1C` (centres undefined), the Ki turned out to be 9.5 µM.

Consider `CCCCCCCC(=O)N(C)/N=C1\CC2(CCN(C)CC2)OC1C` (centres undefined), for which the affinity corresponds to a Ki of 8.8 µM.

The molecule `CCCC(=O)N(C)/N=C1\CC2(CCN(C)CC2)OC1C` (centres undefined) gave a Ki of 16 µM.

`CCCC(=O)N/N=C1\CC2(CCN(C)CC2)OC1C` (centres undefined) gave a Ki of 65 µM.

`CC(C)C(=O)N/N=C1\CC2(CCN(C)CC2)OC1C` (centres undefined) registered an inhibition constant (Ki) of 28 µM. This Ki lies about 2.3-fold lower than the previous one.

As to `CCCCCCC(=O)N/N=C1\CC2(CCN(C)CC2)OC1C` (centres undefined), the Ki was found to be 25 µM.

In turn, `CCCCCCCCCC(=O)N/N=C1\CC2(CCN(C)CC2)OC1C` (centres undefined) showed an inhibition constant Ki of 14.4 µM.

Molecule `CCC(=O)N/N=C1\CC2(CCN(C)CC2)OC1C` (centres undefined) gave an inhibition constant (Ki) of 76 µM.

In turn, `CCCCCC(=O)N/N=C1\CC2(CCN(C)CC2)OC1C` (centres undefined) came in with a Ki of 25 µM.

Take `CC1OC2(CCN(C)CC2)C/C1=N\NC(=O)C(C)(C)C` (centres undefined): the affinity, expressed as Ki, was 15.2 µM. Compared with the last molecule, the Ki is about 1.6-fold lower.

As to `CC1OC2(CCN(C)CC2)C/C1=N\NC(=O)CCCC1CCCCC1` (centres undefined), the Ki came out at 13.6 µM.

`CC1OC2(CCN(C)CC2)C/C1=N\NC(=O)Cc1ccccc1` (centres undefined) came in with a Ki of 30 µM.

For `CC1OC2(CCN(C)CC2)C/C1=N\NC(=O)CCCCC1CCCCC1` (centres undefined), the affinity, expressed as Ki, was 8 µM.

`CC1OC2(CCN(C)CC2)C/C1=N\NC(=O)C1CCCCC1` (centres undefined) gave an inhibitory constant (Ki) of 38 µM.

In turn, `CC1OC2(CCN(C)CC2)C/C1=N\NC(=O)CC1CCCCC1` (centres undefined) yielded a Ki of 30 µM.

With `CC1OC2(CCN(C)CC2)C/C1=N\NC(=O)c1ccc(C2CCCCC2)cc1` (centres undefined), the Ki came to 4.8 µM.

A further experiment deals with Muscarinic acetylcholine receptor M3 (Cavia porcellus) (UniProt Q8VH26). Put plainly: Compound was evaluated for intrinsic activity at M3 receptor by measuring isometric contractions of the isolated guinea pig trachea. In kind it is tissue-based.
Chain of Muscarinic acetylcholine receptor M3 (Cavia porcellus) (Q8VH26 1-587): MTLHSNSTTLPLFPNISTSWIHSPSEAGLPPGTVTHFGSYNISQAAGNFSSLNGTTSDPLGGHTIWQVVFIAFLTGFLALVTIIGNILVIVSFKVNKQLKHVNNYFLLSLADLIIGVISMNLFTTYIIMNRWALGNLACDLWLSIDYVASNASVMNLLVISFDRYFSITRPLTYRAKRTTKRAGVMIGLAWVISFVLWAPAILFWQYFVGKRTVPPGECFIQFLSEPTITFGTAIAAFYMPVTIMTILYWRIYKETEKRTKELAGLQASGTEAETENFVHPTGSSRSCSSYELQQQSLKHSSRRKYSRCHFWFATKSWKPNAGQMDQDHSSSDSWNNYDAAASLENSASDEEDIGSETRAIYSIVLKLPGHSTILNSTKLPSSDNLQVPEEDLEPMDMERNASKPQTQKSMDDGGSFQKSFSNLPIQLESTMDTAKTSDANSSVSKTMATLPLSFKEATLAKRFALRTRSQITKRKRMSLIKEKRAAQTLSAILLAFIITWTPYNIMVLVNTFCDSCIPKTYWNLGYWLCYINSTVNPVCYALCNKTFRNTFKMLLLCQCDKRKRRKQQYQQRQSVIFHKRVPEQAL
In turn, `CC(=O)N/N=C1\CC2(CCN(C)CC2)OC1C` (centres undefined) showed an Intrinsic activity of 91%.

Turning to `CCCCCCCC(=O)N/N=C1\CC2(CCN(C)CC2)OC1C` (centres undefined), the Intrinsic activity was 81%.

`CC1OC2(CCN(C)CC2)C/C1=N\NC(=O)c1ccc(C2CCCCC2)cc1` (centres undefined) showed an Intrinsic activity of 78%.

Source of the values: ChEMBL document CHEMBL1129763, “Acylhydrazones as M1/M3 selective muscarinic agonists” (Bioorg Med Chem Lett, 1996).
